Results reported in BindingDB's records for patent US10508104 (Bristol Myers Squibb, 2019).

Target: T1, Apelin receptor (Homo sapiens, UniProt P35414)
T1 sequence (P35414 whole entry): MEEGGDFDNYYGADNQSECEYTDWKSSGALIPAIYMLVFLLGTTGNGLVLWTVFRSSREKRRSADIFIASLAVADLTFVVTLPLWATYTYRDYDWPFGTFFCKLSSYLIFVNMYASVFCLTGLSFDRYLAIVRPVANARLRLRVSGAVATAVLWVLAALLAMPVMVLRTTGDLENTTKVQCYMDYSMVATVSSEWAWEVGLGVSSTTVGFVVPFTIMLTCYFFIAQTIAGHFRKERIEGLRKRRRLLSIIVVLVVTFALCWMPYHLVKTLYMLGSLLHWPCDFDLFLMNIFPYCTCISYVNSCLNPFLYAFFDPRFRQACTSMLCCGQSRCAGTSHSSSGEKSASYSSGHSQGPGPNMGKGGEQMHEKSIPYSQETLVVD
Test: Intracellular cAMP Accumulation Assay
Procedure: HEK293 cells stably expressing human APJ receptor were used to assess the activity of compounds. Cultured cells were detached and resuspended in the cAMP Homogeneous Time-Resolved Fluorescence (HTRF) assay buffer (Cisbio cat; #62AM4PEJ). […] Serial dilutions of a compound together with assay buffer containing […] and 2 μM forskolin were added to each well containing 5,000 cells and incubated for 30 minutes at room temperature. Subsequently, cAMP D2 reagent was added in the lysis buffer followed by the EuK antibody (Cisbio; cat #62AM4PEJ) and incubated for 60 min. The fluorescence emission ratio was measured using fluorometer. The intracellular cAMP concentrations (compound-stimulated inhibition of forskolin-mediated cAMP production) were calculated by extrapolation from a standard curve using known cAMP concentrations. The EC50 values were obtained by fitting the data to a sigmoidal concentration-response curve with variable slope.

EC50: in the range around 5 nM
SMILES: CCCCC1NC(=O)C(S(=O)(=O)c2ccc(-c3ccnc(F)c3C)cc2)=C(O)N1[C@@H](CC)c1cccc(OC)c1 (stereo partly specified) [US10508104, Example 169]
